Data from EP1561465A2, “Methods of use of fluoroquinolone compounds against bacteria” (LG Life Sciences, Ltd., priority 1999, dated 2001).
Converted amounts (≈) assume the structure as drawn. Like-named read-outs stand apart in the source and are kept apart here.

Legend:
Salmonella spp. = assay: MIC by agar dilution (NCCLS M7-A4), 288 enteropathogenic isolates, eight quinolones; type: cell-based; details: for MIC: ciprofloxacin MIC ≥[…], read-out: MIC
Campylobacter jejuni [1] = assay: MIC by agar dilution (NCCLS M7-A4), 5% sheep blood, microaerophilic 48 h; type: cell-based; details: Campylobacter jejuni (n=91)
Aeromonas spp. = assay: MIC by agar dilution (NCCLS M7-A4), 288 enteropathogenic isolates, gemifloxacin and 15 other antimicrobials; type: cell-based; details: Aeromonas spp. N= 16
Escherichia coli = assay: MIC by agar dilution (NCCLS), 322 nosocomial Gram negative isolates, Athens 1998; type: cell-based; details: Escherichia coli; n = 57 isolates
Pseudomonas aeruginosa = assay: as above; type: cell-based; details: n = 57 isolates
Klebsiella pneumoniae = assay: as above; type: cell-based; details: n = 56 isolates
Acinetobacter spp. = assay: as above; type: cell-based; details: n = 38 strains
Proteus mirabilis = assay: as above; type: cell-based; details: Proteus mirabilis; n = 57 isolates
Enterococcus faecalis [2] = assay: MIC by agar dilution (NCCLS), 411 isolates Buenos Aires 1998-99; type: cell-based; details: Enterococcus faecalis (n = 48)
Campylobacter jejuni [3] = assay: MIC by agar dilution (NCCLS M7-A4), 288 enteropathogenic isolates, gemifloxacin and 15 other antimicrobials; details: Campylobacter jejuni
Streptococcus pneumoniae = assay: MIC by agar dilution (NCCLS), 411 isolates Buenos Aires 1998-99; type: cell-based; details: for MIC / MIC90: Streptococcus pneumoniae; for MIC: Ciprofloxacin-resistant S. pneumoniae, read-out: MIC; for MIC90: read-out: MIC90
Streptococcus pyogenes = assay: as above; type: cell-based; details: Streptococcus pyogenes (n = 69)
Morganella morganii = assay: MIC by NCCLS broth microdilution, 1100 Japanese clinical isolates 1997-1998; type: cell-based; details: Morganella morganii (n=40)
Providencia rettgeri = assay: as above; type: cell-based
Serratia marcescens = assay: as above; type: cell-based
Shigella spp. = assay: as above; type: cell-based; details: Shigella spp. (n=34)
Proteus vulgaris = assay: as above; type: cell-based
Enterococcus faecalis [4] = assay: as above; type: cell-based; details: for MIC50 / MIC90: Enterococcus faecalis; for MIC90: read-out: MIC90
[5] = Streptococcus pneumoniae (n = 90)
[6] = Enterococcus faecalis ciprofloxacin susceptible (n=24)
[7] = Enterococcus faecalis ciprofloxacin resistant (n=15)

## CC1COc2c(N3CCN(C)CC3)c(F)cc3c(=O)c(C(=O)O)cn1c23 (stereo not shown) [Ofloxacin, ofloxacin]
Salmonella spp.; S. hadar (n = 2)
  MIC: 2 mg/L (≈ 5.53 µM)
Salmonella spp.; S. newport (n = 1)
  MIC: 2 mg/L (≈ 5.53 µM)
Salmonella spp.; Salmonella spp. (n = 106)
  % Susceptible: 100%
  MIC50: 0.12 mg/L (≈ 0.332 µM)
  MIC90: 0.5 mg/L (≈ 1.38 µM)
  MIC Range: 0.06 to 2 mg/L
Salmonella spp.; Salmonella, S. tshiongwe (n = 1)
  MIC: 2 mg/L (≈ 5.53 µM)
Campylobacter jejuni [1]
  % Susceptible: 31.86%
  MIC50: 16 mg/L (≈ 44.3 µM)
  MIC90: 32 mg/L (≈ 88.6 µM)
Aeromonas spp.
  MIC (mg/L) Range: ≤0.015 to 0.12 mg/L
Aeromonas spp.; read-out: MIC (mg/L) 50%
  MIC: ≤ 0.015 mg/L
Aeromonas spp.; read-out: MIC (mg/L) 90%
  MIC: 0.03 mg/L (≈ 0.083 µM)
Escherichia coli
  MIC50: 0.06 mg/L (≈ 0.166 µM)
  MIC90: 0.25 mg/L (≈ 0.692 µM)
Pseudomonas aeruginosa
  MIC50: 2 mg/L (≈ 5.53 µM)
  MIC90: > 64 mg/L
Klebsiella pneumoniae; Klebsiella pneumoniae
  MIC50: 0.125 mg/L (≈ 0.346 µM)
  MIC90: 1 mg/L (≈ 2.77 µM)
Klebsiella pneumoniae
  MIC Range: 0.06 to 32 mg/L
Acinetobacter spp.; Acinetobacter
  MIC50: 8 mg/L (≈ 22.1 µM)
  MIC90: 64 mg/L (≈ 177 µM)
Acinetobacter spp.
  MIC Range: 0.125 to 64 mg/L
Proteus mirabilis
  MIC50: 0.25 mg/L (≈ 0.692 µM)
  MIC90: 32 mg/L (≈ 88.6 µM)
Enterococcus faecalis [2]
  MIC90: > 32 mg/L
Campylobacter jejuni [3]; read-out: MIC (mg/L) 50%
  MIC: 16 mg/L (≈ 44.3 µM)
Campylobacter jejuni [3]; read-out: MIC (mg/L) 90%
  MIC: 32 mg/L (≈ 88.6 µM)
Streptococcus pneumoniae; [5]
  MIC Range: 1 to 16 mg/L
  MIC90: 2 mg/L (≈ 5.53 µM)
Streptococcus pneumoniae; Strain 1
  MIC: 2 mg/L (≈ 5.53 µM)
Streptococcus pneumoniae; Strain 2
  MIC: 2 mg/L (≈ 5.53 µM)
Streptococcus pneumoniae; Strain 3
  MIC: 16 mg/L (≈ 44.3 µM)
Streptococcus pneumoniae; Strain 4
  MIC: 8 mg/L (≈ 22.1 µM)
Streptococcus pneumoniae; S. pneumoniae, Penicillin intermediate (n = 17)
  MIC90: 2 mg/L (≈ 5.53 µM)
Streptococcus pneumoniae; S. pneumoniae, Penicillin resistant (n = 4)
  MIC90: 1 mg/L (≈ 2.77 µM)
Streptococcus pneumoniae; S. pneumoniae, Penicillin susceptible (n = 69)
  MIC90: 2 mg/L (≈ 5.53 µM)
Streptococcus pyogenes
  MIC Range: 0.5 to 4 mg/L
Streptococcus pyogenes; read-out: MIC90
  MIC90: 2 mg/L (≈ 5.53 µM)

## NC1CCN(c2nc3c(cc2F)c(=O)c(C(=O)O)cn3-c2ccc(F)cc2F)C1 (stereo not shown) [Tosufloxacin, tosufloxacin]
Morganella morganii
  MIC Range: 0.032 to 16 mg/L
Morganella morganii; read-out: MIC50
  MIC50: 0.063 mg/L (≈ 0.156 µM)
Morganella morganii; read-out: MIC90
  MIC90: 0.25 mg/L (≈ 0.618 µM)
Providencia rettgeri; Providencia rettgeri
  MIC50: 0.125 mg/L (≈ 0.309 µM)
Providencia rettgeri; Providencia rettgeri (n=12)
  MIC90: 8 mg/L (≈ 19.8 µM)
  MIC Range: 0.063 to 8 mg/L
Serratia marcescens; Serratia marcescens
  MIC50: 0.125 mg/L (≈ 0.309 µM)
Serratia marcescens; Serratia marcescens (n=30)
  MIC90: 1 mg/L (≈ 2.47 µM)
Shigella spp.
  MIC50: 0.016 mg/L (≈ 0.0396 µM)
  MIC90: 0.016 mg/L (≈ 0.0396 µM)
  MIC Range: ≤0.008 to 0.032 mg/L
Proteus vulgaris; Proteus vulgaris
  MIC50: 0.125 mg/L (≈ 0.309 µM)
Proteus vulgaris; Proteus vulgaris (n=25)
  MIC Range: 0.063 to 1 mg/L
Proteus vulgaris; Proteus vulgaris (n=25), read-out: MIC90
  MIC90: 0.5 mg/L (≈ 1.24 µM)
Enterococcus faecalis [4]; [6]
  MIC Range: 0.5 - 0.5 µg/ml
  MIC50: 0.5 mg/L (≈ 1.24 µM)
  MIC90: 0.5 mg/L (≈ 1.24 µM)
Enterococcus faecalis [4]; [7]
  MIC50: 32 mg/L (≈ 79.1 µM)
  MIC90: 32 mg/L (≈ 79.1 µM)
